Ends that are not written are not given here.

Assay [1] concerns hepatitis B virus (HBV) ayw strain. As to the kind of experiment: HBV assay in HepG2-2.2.15 cells (TaqMan PCR of secreted HBV DNA). The class given is cell-based. The conditions noted are these: 10 micrograms per ml; HepG2-2.2.15, six days. (Real-time PCR tracks product formation cycle by cycle.)
Assay [2] relates to Human Peripheral Blood Mononuclear Cells (PBMC), B cell proliferation. The assay can be described thus: B cell proliferation assay (SAC plus Interleukin-2 stimulated PBMC, 3H-thymidine). The class given is cell-based. Particulars: 10 micrograms per ml.
Description: Human Peripheral Blood Mononuclear Cells (PBMC) were obtained from normal human donors. The B cell proliferation was induced by stimulation of the cells with the B cell mitogen Staphylococcus aureus Cowans I (SAC) plus Interleukin-2, either in the absence (positive proliferation control), or in the presence of test peptides—10 micrograms per ml—to examine their effects on the B cell response. 10^5/well PBMC were plated in 96-well microtiter plates and assayed in duplicate with the peptides. […] At the end of incubation time, the plates were harvested and the cells counted by liquid scintillation for the incorporation of ^3H-thymidine as a measure of B cell proliferation.
The test system of the next assay is Human A549 cells. The assay can be described thus: Apoptosis prevention assay (C2 ceramide, Annexin-5). The class given is cell-based. Particulars: 10 micrograms per ml, A549, 30 min pretreatment.
Assay [3] concerns Tumor Necrosis Factor-α (TNF-α) in spleen cells. As to the kind of experiment: Th1/Th2 cytokine profiling assay: TNF-α. The format is cell-based, Balb/c mice. Particulars: 10 micrograms per ml; Ovalbumin-restimulated spleen cells, 72 hours.
For assay [4], the system named is Interferon-γ (IFN-γ) in spleen cells. The assay can be described thus: Th1/Th2 cytokine profiling assay: IFN-γ. The format is cell-based, Balb/c mice. Particulars: 10 micrograms per ml; Ovalbumin-restimulated spleen cells, 72 hours.
The test system of assay [5] is Interleukin-2 (IL-2) in spleen cells. As to the kind of experiment: Th1/Th2 cytokine profiling assay: IL-2. Particulars: 10 micrograms per ml; Ovalbumin-restimulated spleen cells, 72 hours. The class given is cell-based, Balb/c mice.
The test system of assay [6] is Interleukin-4 (IL-4) in spleen cells. The assay can be described thus: Th1/Th2 cytokine profiling assay: IL-4. The format is cell-based, Balb/c mice. Particulars: 10 micrograms per ml; Ovalbumin-restimulated spleen cells, 72 hours.
Assay [7] concerns Interleukin-5 (IL-5) in spleen cells. The assay can be described thus: Th1/Th2 cytokine profiling assay: IL-5. The class given is cell-based, Balb/c mice. The conditions noted are these: 10 micrograms per ml; Ovalbumin-restimulated spleen cells, 72 hours.
Excerpt: The Balb/c mice (originated in 1923, it is a popular strain and is used in many different research disciplines. Also classified as an inbred from the production of 20 or more successive brother-sister matings, the Balb/c mouse is albino and small in size) were immunized on Days 1, 15, and 29 with Ovalbumin (Ovalbumin is the main protein found in egg white, commonly used to stimulate an immunological reaction in test animals) in PBS (5 micrograms/injection). On day 50, spleens of the mice were harvested (3 weeks after last boost with Ovalbumin). Cells were cultured (2×10^5/well in triplicate) and incubated with culture medium or test peptides—10 micrograms per ml—for 30 min. Thereafter, additional Ovalbumin was added to the cells at 10 micrograms/ml for in vitro restimulation of the cells. 72 hours later, cell supernatants were harvested and assayed using the Becton Dickinson Mouse Th1/Th2 Cytokine CBA Kit. This kit can be used to measure Interleukin-2 (IL-2), Interleukin-4 (IL-4), Interleukin-5 (IL-5), Interferon-γ (IFN-γ), and Tumor Necrosis Factor-α (TNF-α) protein levels in a single sample. The kit performance has been optimized for analysis of physiologically relevant concentrations (μg/ml levels) of specific cytokine proteins in tissue culture supernatants and serum samples.
For assay [8], the system named is LPS-induced TNF-alpha production in human macrophages. As to the kind of experiment: TNF alpha production assay (LPS-stimulated macrophages, ELISA). The class given is cell-based. Particulars: 10 micrograms per ml; LPS 200 ng/ml, overnight. The source says:
Not stimulated macrophages served as negative background control.

The next assay deals with HUVEC. The assay can be described thus: Endothelial tube formation assay. The format is cell-based, human. Particulars: 10 micrograms per ml, 20 hours. The source says: Positive control was vehicle only.
In another assay the test system is HCMV strain AD169. The assay can be described thus: HCMV plaque formation assay in MRC-5 cells. Particulars: for inhibition of HCMV plaque formation compared to the virus control: 10 micrograms per ml, 7-10 days.
Assay [9] concerns Primary Human endothelial cells (HUVEC). The assay can be described thus: Endothelial cell migration assay. The class given is cell-based. Particulars: 10 micrograms per ml, 22 hours. The protocol: Thereafter, designated concentration of testing peptides—10 micrograms per ml—was added in duplicate wells.

Description for Human A549 cells: Human A549 cells (carcinomic human alveolar basal epithelial cells) were utilized in the experiments employing the Annexin-5 apoptosis assay. […] A549 cells were pretreated for 30 min with test peptides—10 micrograms per ml—followed by the exposure to C2 ceramide.

With Tyr-Gly-Gly-Phe-Met-OH [peptide 2], the “inhibition of HBV replication on tested liver cells” value in assay [1] was “no effect”. The “decrease of the proliferation of specifically stimulated human B-cells” value in [2] was 12.0%. In the assay with Human A549 cells, the “prevention (reduction) of the ceramide-induced apoptosis on human lung cells” value is 17.4%. Moreover, in [3], the “TNF-a spleen cells; TH1 response (% of control)” value is reported as 89.3 % of control. Further, the “IFNγ spleen cells; TH1 response (% of control)” value in assay [4] is recorded as 64.9 % of control. Also, the “IL-2 spleen cells (% of control)” value in assay [5] is 86.3 % of control. Besides, in assay [6], the “IL-4 spleen cells; TH2 response (% of control)” value is on record as 100.4 % of control. For the same compound, in assay [7], the “IL-5 spleen cells; TH2 response (% of control)” value is on record as 67.5 % of control. For the same compound, the “inhibition of the LPS-induced TNF-alpha production in human macrophages” value in assay [8] is reported as 28.4%. Moreover, in the assay with HUVEC, the “inhibition of the tube formation of endothelial cells” value stood at 25%. Besides, in the assay with HCMV strain AD169, the “inhibition of HCMV plaque formation compared to the virus control” value was “did not inhibit”.
Turning to `Nc1nc(O)c2ncn(COC(CO)CO)c2n1` [Ganciclovir, reference compound], in the assay on HCMV strain AD169 (positive control), the “antiviral activity of positive control compound (HCMV)” value was “expected levels of antiviral activity”.
Regarding “Asp-Phe-Asp-Met-Leu-Arg-Cys-Met-Leu-Gly-Arg-Val-Tyr-Arg-Pro-Cys-Trp-Gln-Val-OH (DFDMLRCMLGRVYRPCWQV-OH; ends and bridges not checked) [peptide 1]”, the “inhibition of HBV replication on tested liver cells” value in assay [1] is “no effect”. In assay [2], the “decrease of the proliferation of specifically stimulated human B-cells” value stood at 20.9%. The “prevention (reduction) of the ceramide-induced apoptosis on human lung cells” value in the assay on Human A549 cells is “did not show any reducing or increasing effect”. For the same compound, the “TNF-a spleen cells; TH1 response (% of control)” value in [3] is 92.1 % of control. Besides, the “IFNγ spleen cells; TH1 response (% of control)” value in assay [4] is on record as 90.4 % of control. For the same compound, the “IL-2 spleen cells (% of control)” value in [5] is listed as 42.3 % of control. In addition, the “IL-4 spleen cells; TH2 response (% of control)” value in assay [6] is 85.9 % of control. Also, the “IL-5 spleen cells; TH2 response (% of control)” value in [7] is 78.8 % of control. In addition, in assay [8], the “inhibition of the LPS-induced TNF-alpha production in human macrophages” value was 20.6%. Also, in [9], the “inhibition of the migration of human endothelial cells” value was determined as 39%. In the assay on HUVEC, the “inhibition of the tube formation of endothelial cells” value was 19%. The “inhibition of HCMV plaque formation compared to the virus control” value in the assay with HCMV strain AD169 is on record as “did not inhibit”.
